Results: patent US11607446B2, “Personalized immunotherapy against several neuronal and brain tumors” (Immatics Biotechnologies GmbH, priority 2013, dated 2023)

Tested on: CD8+ T cells
Test: In vitro immunogenicity of HLA-A*24 class I peptides: in vitro T-cell priming with aAPCs loaded with peptide/MHC complexes and anti-CD28 antibody, pMHC multimer readout
Assay type: cell-based, human
Conditions: given as a class symbol; for Donors: share of positive donors in the in vitro immunogenicity experiments; for Wells: share of positive wells in the in vitro immunogenicity experiments
Experimental: In order to obtain information regarding the immunogenicity of the TUMAPs of the present invention, we performed investigations using an in vitro T-cell priming assay based on repeated stimulations of CD8+ T cells with artificial antigen presenting cells (aAPCs) loaded with peptide/MHC complexes and anti-CD28 antibody.
Isolated CD8+ lymphocytes or PBMCs were incubated until use in T-cell medium (TCM) consisting of RPMI-Glutamax (Invitrogen, Karlsruhe, Germany) supplemented with 10% heat inactivated human AB serum (PAN-Biotech, Aidenbach, Germany), 100 U/ml Penicillin/100 μg/ml Streptomycin (Cambrex, Cologne, Germany), 1 mM sodium pyruvate (CC Pro, Oberdorla, Germany), 20 μg/ml Gentamycin (Cambrex). 2.5 ng/ml IL-7 (PromoCell, Heidelberg, Germany) and 10 U/ml IL-2 (Novartis Pharma, Nurnberg, Germany) were also added to the TCM at this step. Generation of pMHC/anti-CD28 coated beads, T-cell stimulations and readout was performed in a highly defined in vitro system using four different pMHC molecules per stimulation condition and 8 different pMHC molecules per readout condition. All pMHC complexes used for aAPC loading and cytometric readout were derived from UV-induced MHC ligand exchange with minor modifications. In order to determine the amount of pMHC monomer obtained by exchange we performed streptavidin-based sandwich ELISAs according to (Rodenko et al., 2006). The purified co-stimulatory mouse IgG2a anti human CD28 Ab 9.3 (Jung et al., 1987) was chemically biotinylated using Sulfo-N-hydroxysuccinimidobiotin as recommended by the manufacturer (Perbio, Bonn, Germany). Beads used were 5.6 μm diameter streptavidin coated polystyrene particles (Bangs Laboratories, Illinois, USA).
800.000 beads/200 μl were coated in 96-well plates in the presence of 4×12.5 ng different biotin-pMHC, washed and 600 ng biotin anti-CD28 were added subsequently in a volume of 200 μl. Stimulations were initiated in 96-well plates by co-incubating 1×10^6 CD8+ T cells with 2×10^5 washed coated beads in 200 μl TCM supplemented with 5 ng/ml IL-12 (PromoCell) for 3-4 days at 37° C. Half of the medium was then exchanged by fresh TCM supplemented with 80 U/ml IL-2 and incubating was continued for 3-4 days at 37° C. This stimulation cycle was performed for a total of three times, with 12 individual wells per condition For the pMHC multimer readout using 8 different pMHC molecules per condition, a two-dimensional combinatorial coding approach was used as previously described (Andersen et al., 2012) with minor modifications encompassing coupling to 5 different fluorochromes. Finally, multimeric analyses were performed by staining the cells with Live/dead near IR dye (Invitrogen, Karlsruhe, Germany), CD8-FITC antibody clone SK1 (BD, Heidelberg, Germany) and fluorescent pMHC multimers. For analysis, a BD LSRII SORP cytometer equipped with appropriate lasers and filters was used. Peptide specific cells were calculated as percentage of total CD8+ cells. Evaluation of multimeric analysis was done using the FlowJo software (Tree Star, Oregon, USA). In vitro priming of specific multimer+ CD8+ lymphocytes was detected by comparison to irrelevant control stimulations.
Exemplary flow cytometry results after TUMAP-specific multimer staining for two peptides of the invention are shown in FIG. 4 together with corresponding negative controls.

Row | Substance | Donors | Wells
1 | LYIYPQSLNF (listed as Homo sapiens) [DOCK7-002] | +++ (50%-70% = +++) | + (<20% = +)
2 | KYNLINEYF (listed as Homo sapiens) [HS2-001] | ++ (20%-49 % = ++) | + (<20% = +)
3 | YYQIRSSQL (listed as Homo sapiens) [EXOC7-001] | ++ (20%-49 % = ++) | + (<20% = +)
4 | YYPGVILGF (listed as Homo sapiens) [TMEM255A-001] | ++ (20%-49 % = ++) | + (<20% = +)
5 | EYIRALQQL (listed as Homo sapiens) [ASCL1-001] | ++ (20%-49 % = ++) | + (<20% = +)
6 | VYNLTQEFF (listed as Homo sapiens) [SMOX-001] | ++ (20%-49 % = ++) | + (<20% = +)
7 | RYGPQFTL (listed as Homo sapiens) [PCD-002] | ++ (20%-49 % = ++) | + (<20% = +)
8 | QYVFIHDTL (listed as Homo sapiens) [PTP-015] | ++ (20%-49 % = ++) | + (<20% = +)
9 | TYVDSSHTI (listed as Homo sapiens) [VCAN-003] | +++ (50%-70% = +++) | + (<20% = +)
10 | HYKPTPLYF (listed as Homo sapiens) [SMC4-001] | ++ (20%-49 % = ++) | + (<20% = +)
11 | NYKDLNGNVF (listed as Homo sapiens) [SSR1-001] | ++ (20%-49 % = ++) | + (<20% = +)
12 | VYQVLQEHL (listed as Homo sapiens) [BMP7-001] | ++ (20%-49 % = ++) | + (<20% = +)
13 | TYTSYLDKF (listed as Homo sapiens) [MAPK6-001] | ++ (20%-49 % = ++) | + (<20% = +)
14 | AYVLRLETL (listed as Homo sapiens) [PNMA2-001] | ++ (20%-49 % = ++) | + (<20% = +)
15 | NYTSLLVTW (listed as Homo sapiens) [PTP-018] | ++++ (>70% = ++++) | + (<20% = +)
16 | SYNPLWLRI (listed as Homo sapiens) [ASPM-002] | +++ (50%-70% = +++) | + (<20% = +)
17 | NROB1-001 (AYLKGTVLF; listed as Homo sapiens) | ++ (20%-49 % = ++) | + (<20% = +)
18 | PYLDKFFAL (listed as Homo sapiens) [DOCK7-003] | ++ (20%-49 % = ++) | + (<20% = +)
19 | PFAKPLPTF (listed as Homo sapiens) [EP4-001] | ++ (20%-49 % = ++) | + (<20% = +)
20 | NYNDRYDEI (listed as Homo sapiens) [RPL-001] | ++ (20%-49 % = ++) | + (<20% = +)
21 | AYSDGHFLF (listed as Homo sapiens) [TENM4-001] | ++ (20%-49 % = ++) | + (<20% = +)
22 | TYIPPLLVAF (listed as Homo sapiens) [TMEM231-001] | +++ (50%-70% = +++) | + (<20% = +)
23 | RYQESLGNTVF (listed as Homo sapiens) [PJA2-001] | ++ (20%-49 % = ++) | + (<20% = +)
24 | VYYFHPQYL (listed as Homo sapiens) [ST8SIA5-001] | ++++ (>70% = ++++) | ++ (20%-49 % = ++)
25 | RYIPLIVDI (listed as Homo sapiens) [ARHGAP21-001] | ++ (20%-49 % = ++) | + (<20% = +)
26 | VYLKEANAI (listed as Homo sapiens) [KIF1B-001] | ++ (20%-49 % = ++) | + (<20% = +)

Row | Substance | Donors | Wells
27 | IFTYIHLQL (listed as Homo sapiens) [LOC72839-001] | +++ (50%-70% = +++) | + (<20% = +)
28 | TYIIKSVGF (listed as Homo sapiens) [UNKN-003] | ++ (20%-49 % = ++) | + (<20% = +)
29 | KYFDKVVTL (listed as Homo sapiens) [KIF7-001] | ++ (20%-49 % = ++) | + (<20% = +)
30 | NYTSLLVTW^+4 (listed as Homo sapiens) [PTP-019] | ++ (20%-49 % = ++) | + (<20% = +)
31 | AYPRLSLSF (listed as Homo sapiens) [GAB-001] | ++ (20%-49 % = ++) | + (<20% = +)
32 | QWAPILANF (listed as Homo sapiens) [NKA-001] | ++ (20%-49 % = ++) | + (<20% = +)
33 | KFAEEFYSF (listed as Homo sapiens) [CDCA7L-001] | ++ (20%-49 % = ++) | + (<20% = +)
34 | EYMKALGVGF (listed as Homo sapiens) [FABP7-002] | ++ (20%-49 % = ++) | + (<20% = +)
35 | KYNEFSVSL (listed as Homo sapiens) [HEATR1-001] | +++ (50%-70% = +++) | + (<20% = +)
36 | PYNHQHEYF (listed as Homo sapiens) [FADS2-002] | ++++ (>70% = ++++) | + (<20% = +)
37 | ZNFS3-001 (RYLPSSVFL; listed as Homo sapiens) | +++ (50%-70% = +++) | ++ (20%-49 % = ++)
38 | IYGGHHAGF (listed as Homo sapiens) [OLIG2-001] | ++ (20%-49 % = ++) | + (<20% = +)
39 | FYGPQVNNI (listed as Homo sapiens) [WASL-001] | ++++ (>70% = ++++) | + (<20% = +)
40 | YYHFIFTTL (listed as Homo sapiens) [GRIK3-002] | ++++ (>70% = ++++) | + (<20% = +)
41 | VYNDIGKEMLL (listed as Homo sapiens) [KIF1B-002] | ++ (20%-49 % = ++) | + (<20% = +)
42 | NYIDNVGNLHF (listed as Homo sapiens) [LNX1-001] | ++ (20%-49 % = ++) | + (<20% = +)
43 | TYNYAVLKF (listed as Homo sapiens) [GPM-002] | +++ (50%-70% = +++) | + (<20% = +)
44 | VYLTIKPLNL (listed as Homo sapiens) [EFCAB7-001] | ++ (20%-49 % = ++) | + (<20% = +)
45 | YYTVRNFTL (listed as Homo sapiens) [PTP-014] | ++ (20%-49 % = ++) | + (<20% = +)
46 | VYDTMIEKF (listed as Homo sapiens) [PTP-016] | ++ (20%-49 % = ++) | + (<20% = +)
47 | NYQDTIGRL (listed as Homo sapiens) [VIM-002] | ++ (20%-49 % = ++) | + (<20% = +)
48 | AFSPDSHYLLF (listed as Homo sapiens) [ITGA7-001] | ++ (20%-49 % = ++) | + (<20% = +)
49 | RYLPSSVFL (listed as Homo sapiens) [ZNF749-001] | ++ (20%-49 % = ++) | + (<20% = +)
50 | KYFGGVLEYF (listed as Homo sapiens) [RHOBTB3-001] | ++ (20%-49 % = ++) | + (<20% = +)
51 | AYLIDIKTI (listed as Homo sapiens) [IFT17-001] | +++ (50%-70% = +++) | + (<20% = +)
